Reference: ChEMBL document CHEMBL1121501, “Synthesis and preliminary binding studies of 4,4-ditritio-(-)-nicotine of high specific activity” (J Med Chem, 1980)

How the values were obtained:
Rattus norvegicus [1] = organism: Rattus norvegicus
Description: Compound was evaluated for the binding affinity at crude mitochondrial fraction of rat whole brain at 7 nmol/mg of protein.

Rattus norvegicus [2] = organism: Rattus norvegicus; remark: listed apart in the source
Description: Compound was evaluated for the binding affinity at crude mitochondrial fraction of rat whole brain at 13 fmol of binding sites/mg of protein

CN1CCC[C@H]1c1cccnc1
Ka (Rattus norvegicus [1]): 4400 M⁻¹
Ka (Rattus norvegicus [2]): 4.7e+06 M⁻¹
